# Experimental data published in paper PMC6151740, “Pharmacokinetics, Tissue Distribution, and Elimination of Three Active Alkaloids in Rats after Oral Administration of the Effective Fraction of Alkaloids from Ramulus Mori, an Innovative Hypoglycemic Agent” (Molecules : A Journal of Synthetic Chemistry and Natural …, 2017).
# Read-outs that look alike come from different tables or passages of the source.
# Legend:
# [1] = Plasma pharmacokinetic study in rats after oral and intravenous administration of SZ–A or purified DNJ; format: in vivo, rat; settings: for MRT last: read-out: MRT0–t; for MRT inf: read-out: MRT0–∞; for bioavailability: plasma, read-out: F (oral absolute bioavailability)
# Protocol: The oral dosing solutions used for all animal studies were prepared by dissolving in water. Thirty rats weighed 250–270 g after acclimation were randomly divided into six groups of five animals each. For oral administration, rats were treated with SZ–A (40, 200, 1000 mg/kg) or purified DNJ (15 mg/kg) dissolve in water. Blood samples (about 0.25 mL) were collected via the postorbital venous plexus veins under ether anesthesia into heparinized polythene tubes before dosing and at 0.08, 0.17, 0.33, 0.50, 1, 2, 3, 4, 6, 8, 12, 24 and 36 h after drug administration. For intravenous dosing, rats were given SZ–A (4 mg/kg) or DNJ (1.5 mg/kg) dissolved in normal saline solution through the tail vein. Then blood samples were collected at 0.03, 0.08, 0.17, 0.33, 0.67, 1, 2, 4, 6, 8, 12, 24, and 36 h under similar conditions. Considering the physical limit of blood in rats, during the process of the pharmacokinetic experiment, each rat was received 0.25 mL of sterile isotonic saline at each time point after blood sampling for compensation of body fluid loss, and the blood loss was also corrected at a definite degree. Plasma was separated by centrifuging the blood samples at 1660× g for 5 min and stored at −20 °C until LC-MS/MS analysis. Data fitting and pharmacokinetic parameter estimates were carried out using non–compartmental analysis via WinNonlin Software (version 6.1, Pharsight Corporation, Mountain View, CA, USA). F was calculated according to the formula: F (%) = (AUC oral/AUC i.v.) × (dose i.v./dose oral) × 100.
# The plasma, feces, urine, and bile samples (100 μL) were added to 1 μL of Tris aqueous solution (2 M), 10 μL of IS working solution (2 μg/mL), and 190 μL methanol–acetonitrile (25:75, v/v). The incubation supernatant samples (300 μL) were mixed with 1 μL Tris aqueous solution (2 M) and 10 μL of IS working solution (2 μg/mL). All mixtures were vortexed for 30 s followed by centrifugation at 18,880× g for 5 min, twice.
# Briefly, the LC-MS/MS instrument consisted of a 1260 HPLC system (Agilent, Santa Clara, CA, USA) and API4000 triple quadrupole mass spectrometer (Applied Biosystems Sciex, Toronto, ON, Canada) with an electrospray ionization (ESI) source and Analyst software (version 1.5.2, Applied Biosystems Sciex, Toronto, ON, Canada) for data acquisition and processing. DNJ, FGM, DAB, and IS were separated in a Xbridge amide™ column (3.5 μm, 4.6 mm × 150 mm; Waters, Milford, MA, USA) with a gradient mobile phase of acetonitrile-water (0.1% ammonium hydroxide) at a flow rate of 0.7 mL/min. An ESI source was used in the positive ion mode. The optimized mass spectrometric condition was as follows: ion spray voltage, 5500 V; collision gas, 6 psi; curtain gas, 20 psi; ion source gas 1 (GS1), 45 psi; ion source gas 2 (GS2), 45 psi; temperature, 450 °C. The multiple reaction monitoring (MRM) transitions of DNJ, FGM, DAB, and IS were m/z 164.0→110.1 (declustering potential (DP) 50 V, collision energy (CE) 22 V, collision cell exit potential (CXP) 10 V), 148.0→112.1 (DP 66 V, CE 21 V, CXP 10 V), 134.0→98.0 (DP 60 V, CE 20 V, CXP 10 V) and 208.0→146.1 (DP 50 V, CE 27 V, CXP 10 V), respectively.
# [2] = Excretion into urine, feces and bile in rats after oral SZ–A; format: in vivo; settings: rat, SZ–A 40 mg/kg p.o.
# Protocol: Five rats were kept in the metabolic cages with free access to water and food 2 h post dose. Urine was collected before dosing and at 0–4, 4–8, 8–24, 24–36, and 36–48 h, and feces was simultaneously collected before dosing and at 0–24, 24–36, and 36–48 h after oral dosing of SZ–A (40 mg/kg). Feces samples were dried and grinded into powder, then homogenized with normal saline solution (1:9, w/v). Additionally, the bile duct of rats under ether anesthesia were cannulated with a PE-10 tube (Portex Ltd., Kent, UK). Bile was collected before dosing and at 0–1, 1–2, 2–4, 4–6, 6–10, 10–20, 20–24, 24–28, and 28–32 h following oral administration of SZ–A (40 mg/kg). All urine, feces, and bile samples were stored at −20 °C until LC-MS/MS analysis.
# [3] = Sprague-Dawley, iv, rat plasma, SZ–A 4 mg/kg i.v., n = 5
# [4] = Sprague-Dawley, po, rat plasma, SZ–A 40 mg/kg p.o., n = 5
# [5] = Sprague-Dawley, po, rat plasma, SZ–A 200 mg/kg p.o., n = 5
# [6] = Sprague-Dawley, po, rat plasma, SZ–A 1000 mg/kg p.o., n = 5
# [7] = rat plasma, SZ–A 40 mg/kg p.o., n = 5
# [8] = rat plasma, SZ–A 200 mg/kg p.o., n = 5
# [9] = rat plasma, SZ–A 1000 mg/kg p.o., n = 5
compound,measurement,setting,value
"OC[C@H]1NC[C@@H](O)[C@@H]1O [DAB, 1,4-dideoxy-1,4-imino-D-arabinitol]",AUC(0-inf),[1]; [3],129 ± 20.1 ng·h/mL
same,AUC(0-t),[1]; [3],124 ± 20.8 ng·h/mL
same,Cmax,[1]; [3],625 ± 183 ng/mL
same,Tmax,[1]; [3],0.033 h
same,half-life,[1]; [3],0.18 ± 0.03 h
same,clearance,"[1]; Sprague-Dawley, iv, rat plasma, SZ–A 4 mg/kg i.v., n = 5, read-out: CLz (converted)",25.6 mL/min/kg
same,MRT last,[1]; [3],0.18 ± 0.04 h
same,MRT inf,[1]; [3],0.21 ± 0.05 h
same,Vd,"[1]; Sprague-Dawley, iv, rat plasma, SZ–A 4 mg/kg i.v., n = 5, read-out: Vd",0.401 ± 0.0408 L/kg
same,bioavailability,"[1]; Sprague-Dawley, po, rat, SZ–A 40 mg/kg p.o. vs SZ–A 4 mg/kg i.v.",78.2%
same,bioavailability,"[1]; Sprague-Dawley, po, rat, SZ–A 200 mg/kg p.o. vs SZ–A 4 mg/kg i.v.",56.6%
same,bioavailability,"[1]; Sprague-Dawley, po, rat, SZ–A 1000 mg/kg p.o. vs SZ–A 4 mg/kg i.v.",40.1%
same,AUC(0-inf),[1]; [4],978 ± 140 ng·h/mL
same,AUC(0-t),[1]; [4],969 ± 147 ng·h/mL
same,Cmax,[1]; [4],708 ± 171 ng/mL
same,Tmax,[1]; [4],0.67 ± 0.29 h
same,half-life,[1]; [4],1.22 ± 0.16 h
same,MRT last,[1]; [4],1.32 ± 0.18 h
same,MRT inf,[1]; [4],1.42 ± 0.25 h
same,AUC(0-inf),[1]; [5],3560 ± 729 ng·h/mL
same,AUC(0-t),[1]; [5],3510 ± 716 ng·h/mL
same,Cmax,[1]; [5],2000 ± 656 ng/mL
same,Tmax,[1]; [5],0.57 ± 0.09 h
same,half-life,[1]; [5],1.38 ± 0.23 h
same,MRT last,[1]; [5],1.95 ± 0.35 h
same,MRT inf,[1]; [5],2.09 ± 0.29 h
same,AUC(0-inf),[1]; [6],12900 ng·h/mL
same,AUC(0-t),[1]; [6],12400 ng·h/mL
same,Tmax,[1]; [6],0.47 ± 0.14 h
same,half-life,[1]; [6],2.38 ± 0.97 h
same,MRT last,[1]; [6],4.09 ± 1.19 h
same,MRT inf,[1]; [6],4.66 ± 1.52 h
same,CLz,[1]; [7],33.188 ± 4.977 mL/min/kg
same,Vd,[1]; [7],3.5486 ± 0.9901 L/kg
same,CLz,[1]; [8],46.928 ± 9.39 mL/min/kg
same,Vd,[1]; [8],5.4724 ± 0.5717 L/kg
same,CLz,[1]; [9],65.433 ± 14.71 mL/min/kg
same,Vd,[1]; [9],"13,892.2 ± 7160.0 mL/kg"
same,time to reach maximum plasma concentration (Cmax),"[1]; rat, after oral administration of SZ–A (40, 200, 1000 mg/kg), upper bound over doses",≤ 0.67 h
same,dose excreted,"[2]; bile, po, within 32 h, read-out: recovery in bile (% of dose)",0.35%
same,cumulative excretion into feces (% of dose),"[2]; over a 24 h period, n = 5",34.05%
same,cumulative excretion into urine (% of dose),"[2]; over a 24 h period, n = 5",52.91%
